Source: patent publication EP0329198B1, “Base modified oligo- and polynucleotides and methods of preparing and using same” (priority 1981, dated 1982)
Read-outs that look alike come from different tables or passages of the source.

What was measured:
Streptavidin-Sepharose = Streptavidin-Sepharose (Streptomyces avidinii, UniProt P22629)
Description: Its preparation and purification is described in Hoffman, et al., Proc. Natl. Acad. Sci., 77, 4666 (1980).

avidin = avidin (Gallus gallus, UniProt P02701); conditions: cited from earlier work
streptavidin = streptavidin (Streptomyces avidinii, UniProt P22629); conditions: affinity of streptavidin for biotin; cited from earlier work
[1] = system: CHO cells, permeabilized by treatment with lysolecithin; assay: Polymerase substrate function in permeabilized cells

Sequence of Streptavidin-Sepharose (P22629 25-183): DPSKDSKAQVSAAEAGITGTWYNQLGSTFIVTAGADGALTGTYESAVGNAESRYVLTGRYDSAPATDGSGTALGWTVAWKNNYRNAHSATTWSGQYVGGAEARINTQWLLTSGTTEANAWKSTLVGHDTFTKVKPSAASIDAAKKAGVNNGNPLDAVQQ
Sequence of avidin (P02701 25-152): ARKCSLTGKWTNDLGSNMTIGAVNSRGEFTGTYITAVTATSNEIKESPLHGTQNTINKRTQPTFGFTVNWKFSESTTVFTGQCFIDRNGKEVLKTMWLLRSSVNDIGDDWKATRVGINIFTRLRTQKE
Sequence of streptavidin (P22629 25-183): as the sequence (P22629 25-183) above

Compound: Iminobiotinyl-dUTP [^3H-IB-dUTP]
- % Retained on SA-Sepharose (Streptavidin-Sepharose; Load - 10 mM Tris-HCl, 8.3, 50 mM NaCl): 100%
- % Retained on SA-Sepharose (Streptavidin-Sepharose; eluent (1) 0.1 M NaCl): 100%
- % Retained on SA-Sepharose (Streptavidin-Sepharose; eluent (2) 1.0 M NaCl): 100%
- % Retained on SA-Sepharose (Streptavidin-Sepharose; eluent (3) 8 M Urea): 97.5%
- % Retained on SA-Sepharose (Streptavidin-Sepharose; eluent (4) 6 M guanidine-HCl): 97.0%
- % Retained on SA-Sepharose (Streptavidin-Sepharose; eluent (5) 50 mM NH4-acetate, pH 4.0): <0.01%
- % Retained on SA-Sepharose (Streptavidin-Sepharose; eluent (6) 50 mM NH4-acetate, pH 4.0 2 mM biotin): <0.01%

Compound: N=C1N[C@H]2[C@H](CS[C@H]2CCCCC(=O)O)N1 [iminobiotin]
- binding to avidin relative to biotin (avidin): less tightly than biotin

Compound: O=C(O)CCCC[C@@H]1SC[C@@H]2NC(=O)N[C@@H]21 [biotin]
- Kassn (streptavidin): 10^15

Compound: O=C(CCCCC1SCC2NC(=O)NC21)NC/C=C/c1cn(C2CC(O)C(COP(=O)(O)OP(=O)(O)OP(=O)(O)O)O2)c(=O)[nH]c1=O (stereo not shown) [Bio-dUTP, biotinyl-dUTP]
- polymerase substrate function [1]: function as a polymerase substrate
